Counter-ions that a name gives are not always drawn. Like-named read-outs stand apart in the source and are kept apart here.
Key:
[1] = Solubility screening of veldoreotide acetate (10 mg, incremental volumes of medium, USP definition); type: physicochemical
Source text: The solubility of veldoreotide acetate in aqueous media was screened by the following method. A fixed amount of 10 milligrams of the peptide was weighed and dissolved at ambient temperature by increased (incremental) volumes of the tested medium until a complete solubility was observed, i.e, clear/transparent solution and absence of any precipitates (the solubility endpoint values were defined according to USP guidance). Following the results of the screening studies, several media were selected for verification studies based on quantitative assessment of the peptide concentration by HPLC (maximal solubility). The results of the screening study are depicted in Table 1 while the results of the verification studies are included in Table 2.

[2] = Circulatory half-life after subcutaneous administration to rats; conditions: rat, in vivo, sc
Source text: The unique pharmacokinetic profile of veldoreotide acetate as evaluated in animals is consistent with its metabolic stability as evaluated in-vitro against various enzymes and tissue homogenates. […] This prolonged half-life is due to its unique “flip-flop” kinetics, a result of its slow release from the injection site.

Compound: C[C@@H](O)[C@@H]1NC(=O)[C@H](CCCCN)NC(=O)[C@@H](Cc2c[nH]c3ccccc23)NC(=O)[C@H](Cc2c[nH]c3ccccc23)NC(=O)[C@H](Cc2ccccc2)NC(=O)CCCNC(=O)CCCN(CC(N)=O)C(=O)[C@H](Cc2ccccc2)NC1=O [Veldoreotide Acetate, Cyclo(-γ-aminobutyryl-L-phenylalanyl-L-tryptophanyl-D-tryptophanyl-L-lysyl-L-threonyl-L-phenylalanyl-N-carbamoylmethyl-γ-aminobutyryl), acetate salt]
- solubility ([1]; Acetone (USP), 10 mg in Acetone (USP), read-out: 1 ml Sparingly soluble (0.01 g/ml; 10 mg/ml)): > 10 mg/mL
- solubility ([1]; Acetone (USP), 0.1 ml Freely soluble (0.1 g/ml), 10 mg in Acetone (USP)): > 100 mg/mL
- solubility ([1]; Acetone (USP), 10 ml Slightly soluble (0.001 g/ml; 1 mg/ml), 10 mg in Acetone (USP)): > 1 mg/mL
- solubility ([1]; Dextrose 5% (USP), 10 mg in Dextrose 5% (USP), read-out: 0.01 ml Very soluble (1 g/ml)): < 1000 mg/mL
- solubility ([1]; Dextrose 5% (USP), 10 mg in Dextrose 5% (USP), read-out: 0.5 ml Soluble (0.02 g/ml; 20 mg/ml)): > 20 mg/mL
- solubility ([1]; Dextrose 5% (USP), 10 mg in Dextrose 5% (USP), read-out: 1 ml Sparingly soluble (0.01 g/ml; 10 mg/ml)): > 10 mg/mL
- solubility ([1]; Dextrose 5% (USP), 0.1 ml Freely soluble (0.1 g/ml), 10 mg in Dextrose 5% (USP)): > 100 mg/mL
- solubility ([1]; Dextrose 5% (USP), 10 ml Slightly soluble (0.001 g/ml; 1 mg/ml), 10 mg in Dextrose 5% (USP)): > 1 mg/mL
- solubility ([1]; Ethanol (USP), 10 mg in Ethanol (USP), read-out: 0.01 ml Very soluble (1 g/ml)): < 1000 mg/mL
- solubility ([1]; Ethanol (USP), 10 mg in Ethanol (USP), read-out: 0.5 ml Soluble (0.02 g/ml; 20 mg/ml)): > 20 mg/mL
- solubility ([1]; Ethanol (USP), 10 mg in Ethanol (USP), read-out: 1 ml Sparingly soluble (0.01 g/ml; 10 mg/ml)): > 10 mg/mL
- solubility ([1]; Ethanol (USP), 0.1 ml Freely soluble (0.1 g/ml), 10 mg in Ethanol (USP)): > 100 mg/mL
- solubility ([1]; Ethanol (USP), 10 ml Slightly soluble (0.001 g/ml; 1 mg/ml), 10 mg in Ethanol (USP)): > 1 mg/mL
- solubility ([1]; Lactic acid 37 mM, Mannitol 250 mM, pH 4.3, 10 mg in Lactic acid 37 mM, Mannitol 250 mM (pH 4.3), read-out: 0.01 ml Very soluble (1 g/ml)): < 1000 mg/mL
- solubility ([1]; Lactic acid 37 mM, Mannitol 250 mM, pH 4.3, 10 mg in Lactic acid 37 mM, Mannitol 250 mM (pH 4.3), read-out: 0.5 ml Soluble (0.02 g/ml; 20 mg/ml)): > 20 mg/mL
- solubility ([1]; Lactic acid 37 mM, Mannitol 250 mM, pH 4.3, 10 mg in Lactic acid 37 mM, Mannitol 250 mM (pH 4.3), read-out: 1 ml Sparingly soluble (0.01 g/ml; 10 mg/ml)): > 10 mg/mL
- solubility ([1]; Lactic acid 37 mM, Mannitol 250 mM, pH 4.3, 0.1 ml Freely soluble (0.1 g/ml), 10 mg in Lactic acid 37 mM, Mannitol 250 mM (pH 4.3)): > 100 mg/mL
- solubility ([1]; Lactic acid 37 mM, Mannitol 250 mM, pH 4.3, 10 ml Slightly soluble (0.001 g/ml; 1 mg/ml), 10 mg in Lactic acid 37 mM, Mannitol 250 mM (pH 4.3)): > 1 mg/mL
- solubility ([1]; PBS, pH 7.2, 10 mg in PBS pH 7.2, read-out: 0.01 ml Very soluble (1 g/ml)): < 1000 mg/mL
- solubility ([1]; PBS, pH 7.2, 10 mg in PBS pH 7.2, read-out: 0.5 ml Soluble (0.02 g/ml; 20 mg/ml)): < 20 mg/mL
- solubility ([1]; PBS, pH 7.2, 10 mg in PBS pH 7.2, read-out: 1 ml Sparingly soluble (0.01 g/ml; 10 mg/ml)): < 10 mg/mL
- solubility ([1]; PBS, pH 7.2, 0.1 ml Freely soluble (0.1 g/ml), 10 mg in PBS pH 7.2): < 100 mg/mL
- solubility ([1]; PBS, pH 7.2, 10 ml Slightly soluble (0.001 g/ml; 1 mg/ml), 10 mg in PBS pH 7.2): < 1 mg/mL
- solubility ([1]; Propylene glycol, 10 mg in Propylene glycol, read-out: 0.01 ml Very soluble (1 g/ml)): < 1000 mg/mL
- solubility ([1]; Propylene glycol, 10 mg in Propylene glycol, read-out: 0.5 ml Soluble (0.02 g/ml; 20 mg/ml)): > 20 mg/mL
- solubility ([1]; Propylene glycol, 10 mg in Propylene glycol, read-out: 1 ml Sparingly soluble (0.01 g/ml; 10 mg/ml)): > 10 mg/mL
- solubility ([1]; Propylene glycol, 0.1 ml Freely soluble (0.1 g/ml), 10 mg in Propylene glycol): > 100 mg/mL
- solubility ([1]; Propylene glycol, 10 ml Slightly soluble (0.001 g/ml; 1 mg/ml), 10 mg in Propylene glycol): > 1 mg/mL
- solubility ([1]; Saline (USP) (0.9% NaCl), pH 4.5, 10 mg in Saline (USP) (0.9% NaCl) pH 4.5, read-out: 0.01 ml Very soluble (1 g/ml)): < 1000 mg/mL
- solubility ([1]; Saline (USP) (0.9% NaCl), pH 4.5, 10 mg in Saline (USP) (0.9% NaCl) pH 4.5, read-out: 0.5 ml Soluble (0.02 g/ml; 20 mg/ml)): < 20 mg/mL
- solubility ([1]; Saline (USP) (0.9% NaCl), pH 4.5, 10 mg in Saline (USP) (0.9% NaCl) pH 4.5, read-out: 1 ml Sparingly soluble (0.01 g/ml; 10 mg/ml)): < 10 mg/mL
- solubility ([1]; Saline (USP) (0.9% NaCl), pH 4.5, 0.1 ml Freely soluble (0.1 g/ml), 10 mg in Saline (USP) (0.9% NaCl) pH 4.5): < 100 mg/mL
- solubility ([1]; Saline (USP) (0.9% NaCl), pH 4.5, 10 ml Slightly soluble (0.001 g/ml; 1 mg/ml), 10 mg in Saline (USP) (0.9% NaCl) pH 4.5): < 1 mg/mL
- solubility ([1]; caprylic acid, 10 mg in Caprylic acid, read-out: 0.01 ml Very soluble (1 g/ml)): < 1000 mg/mL
- solubility ([1]; caprylic acid, 10 mg in Caprylic acid, read-out: 0.5 ml Soluble (0.02 g/ml; 20 mg/ml)): > 20 mg/mL
- solubility ([1]; caprylic acid, 10 mg in Caprylic acid, read-out: 1 ml Sparingly soluble (0.01 g/ml; 10 mg/ml)): > 10 mg/mL
- solubility ([1]; caprylic acid, 0.1 ml Freely soluble (0.1 g/ml), 10 mg in Caprylic acid): < 100 mg/mL
- solubility ([1]; caprylic acid, 10 ml Slightly soluble (0.001 g/ml; 1 mg/ml), 10 mg in Caprylic acid): > 1 mg/mL
- solubility ([1]; double distilled water, 10 mg in DDW (Double distilled water), read-out: 0.01 ml Very soluble (1 g/ml)): < 1000 mg/mL
- solubility ([1]; double distilled water, 10 mg in DDW (Double distilled water), read-out: 0.5 ml Soluble (0.02 g/ml; 20 mg/ml)): > 20 mg/mL
- solubility ([1]; double distilled water, 10 mg in DDW (Double distilled water), read-out: 1 ml Sparingly soluble (0.01 g/ml; 10 mg/ml)): > 10 mg/mL
- solubility ([1]; double distilled water, 0.1 ml Freely soluble (0.1 g/ml), 10 mg in DDW (Double distilled water)): > 100 mg/mL
- solubility ([1]; double distilled water, 10 ml Slightly soluble (0.001 g/ml; 1 mg/ml), 10 mg in DDW (Double distilled water)): > 1 mg/mL
- solubility ([1]; glycerol, 10 mg in Glycerol, read-out: 0.01 ml Very soluble (1 g/ml)): < 1000 mg/mL
- solubility ([1]; glycerol, 10 mg in Glycerol, read-out: 0.5 ml Soluble (0.02 g/ml; 20 mg/ml)): > 20 mg/mL
- solubility ([1]; glycerol, 10 mg in Glycerol, read-out: 1 ml Sparingly soluble (0.01 g/ml; 10 mg/ml)): > 10 mg/mL
- solubility ([1]; glycerol, 0.1 ml Freely soluble (0.1 g/ml), 10 mg in Glycerol): < 100 mg/mL
- solubility ([1]; glycerol, 10 ml Slightly soluble (0.001 g/ml; 1 mg/ml), 10 mg in Glycerol): > 1 mg/mL
- solubility ([1]; oleic acid, 10 mg in Oleic acid, read-out: 0.01 ml Very soluble (1 g/ml)): < 1000 mg/mL
- solubility ([1]; oleic acid, 10 mg in Oleic acid, read-out: 0.5 ml Soluble (0.02 g/ml; 20 mg/ml)): < 20 mg/mL
- solubility ([1]; oleic acid, 10 mg in Oleic acid, read-out: 1 ml Sparingly soluble (0.01 g/ml; 10 mg/ml)): < 10 mg/mL
- solubility ([1]; oleic acid, 0.1 ml Freely soluble (0.1 g/ml), 10 mg in Oleic acid): < 100 mg/mL
- solubility ([1]; oleic acid, 10 ml Slightly soluble (0.001 g/ml; 1 mg/ml), 10 mg in Oleic acid): < 1 mg/mL
- solubility ([1]; refined vegetable oils (olive, cotton, coconut, canola), 10 mg in Refined vegetable oils, Olive, Cotton, Coconut, Canola, read-out: 0.01 ml Very soluble (1 g/ml)): < 1000 mg/mL
- solubility ([1]; refined vegetable oils (olive, cotton, coconut, canola), 10 mg in Refined vegetable oils, Olive, Cotton, Coconut, Canola, read-out: 0.5 ml Soluble (0.02 g/ml; 20 mg/ml)): < 20 mg/mL
- solubility ([1]; refined vegetable oils (olive, cotton, coconut, canola), 10 mg in Refined vegetable oils, Olive, Cotton, Coconut, Canola, read-out: 1 ml Sparingly soluble (0.01 g/ml; 10 mg/ml)): < 10 mg/mL
- solubility ([1]; refined vegetable oils (olive, cotton, coconut, canola), 0.1 ml Freely soluble (0.1 g/ml), 10 mg in Refined vegetable oils, Olive, Cotton, Coconut, Canola): < 100 mg/mL
- solubility ([1]; refined vegetable oils (olive, cotton, coconut, canola), 10 ml Slightly soluble (0.001 g/ml; 1 mg/ml), 10 mg in Refined vegetable oils, Olive, Cotton, Coconut, Canola): < 1 mg/mL
- solubility ([1]; water for injection (WFI-USP), 10 mg in WFI-USP (water for injection), read-out: 0.01 ml Very soluble (1 g/ml)): < 1000 mg/mL
- solubility ([1]; water for injection (WFI-USP), 10 mg in WFI-USP (water for injection), read-out: 0.5 ml Soluble (0.02 g/ml; 20 mg/ml)): > 20 mg/mL
- solubility ([1]; water for injection (WFI-USP), 10 mg in WFI-USP (water for injection), read-out: 1 ml Sparingly soluble (0.01 g/ml; 10 mg/ml)): > 10 mg/mL
- solubility ([1]; water for injection (WFI-USP), 0.1 ml Freely soluble (0.1 g/ml), 10 mg in WFI-USP (water for injection)): < 100 mg/mL
- solubility ([1]; water for injection (WFI-USP), 10 ml Slightly soluble (0.001 g/ml; 1 mg/ml), 10 mg in WFI-USP (water for injection)): > 1 mg/mL
- half-life [2]: ~3 h
